# Read-outs that look alike come from different tables or passages of the source.
# How the values were obtained:
# FGFR1 = molecular target: T1, FGFR1 (Homo sapiens, UniProt P11362); assay: FGFR1 kinase activity inhibition assay (LanthaScreen TR-FRET); format: biochemical
# T1 construct: cytoplasmic domain [398-822 (terminal) amino acids]; purchased Carna 08-133
# Procedure: (§1) PV3552) and 10 mM EDTA were added to quench the kinase reaction, and incubated at 22°C for 60 minutes. • ⑤ The reaction was measured using a PerkinElmer EnVision multimode plate reader through TR-FRET dual wavelength detection. • 1. The RFU values were copied from the Envision program. • 2. The ratio of RFU 520nm/RFU 495nm was calculated. • 3. The value of the ratio was converted to a percentage inhibition value. % Inhibition = (max-data)/(max-min) × 100 [formula] "Min" represents the ratio of the control without enzyme, "max" represents the ratio of the DMSO control, and "data" represents the ratio of the compounds in wells with different concentrations. […] "Top" refers to the maximum response, "Bottom" refers to the minimum response, and "HillSlope" refers to the slope of the curve.
# FGFR3 = molecular target: T2, FGFR3 (Homo sapiens, UniProt P22607); assay: FGFR3 kinase activity inhibition assay (LanthaScreen TR-FRET); format: biochemical; conditions: for Selectivity (X) FGFR1/FGFR3: ratio of IC50 FGFR1/FGFR3, selectivity towards FGFR3
# T2 construct: FGFR3's cytoplasmic domain [436-806 (terminal) amino acids]; purchased Carna 08-135
# T2 sequence (P22607 436-806): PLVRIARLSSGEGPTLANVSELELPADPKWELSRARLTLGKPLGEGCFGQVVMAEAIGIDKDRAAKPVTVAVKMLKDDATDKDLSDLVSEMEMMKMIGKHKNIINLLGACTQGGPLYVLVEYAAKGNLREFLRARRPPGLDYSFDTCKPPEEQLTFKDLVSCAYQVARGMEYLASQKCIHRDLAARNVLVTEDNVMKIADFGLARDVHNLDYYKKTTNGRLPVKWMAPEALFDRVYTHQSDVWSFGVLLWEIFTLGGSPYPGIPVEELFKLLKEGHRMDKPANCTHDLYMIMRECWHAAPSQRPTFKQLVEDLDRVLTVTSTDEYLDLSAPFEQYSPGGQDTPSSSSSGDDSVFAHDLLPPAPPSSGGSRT
# Procedure: as §1, with “curve. According to the same method as that in the FGFR1 kinase activity inhibition assay, the inhibitory activities against FGFR2, FGFR3 and FGFR4 were tested using FGFR2's cytoplasmic domain [399-821 (terminal) amino acids] (Carna: 08-134), FGFR3's cytoplasmic domain [436-806 (terminal) amino acids] (Carna: 08-135) and FGFR4's cytoplasmic domain [460-802 (terminal) amino acids] (Carna: 08-136), respectively. […]” for “curve.”
# [1] = FGFR1 kinase, TR-FRET, read-out: IC50 (nM) FGFR1
# [2] = FGFR3 kinase, TR-FRET, read-out: IC50 (nM) FGFR3
# T1 sequence (P11362 398-822): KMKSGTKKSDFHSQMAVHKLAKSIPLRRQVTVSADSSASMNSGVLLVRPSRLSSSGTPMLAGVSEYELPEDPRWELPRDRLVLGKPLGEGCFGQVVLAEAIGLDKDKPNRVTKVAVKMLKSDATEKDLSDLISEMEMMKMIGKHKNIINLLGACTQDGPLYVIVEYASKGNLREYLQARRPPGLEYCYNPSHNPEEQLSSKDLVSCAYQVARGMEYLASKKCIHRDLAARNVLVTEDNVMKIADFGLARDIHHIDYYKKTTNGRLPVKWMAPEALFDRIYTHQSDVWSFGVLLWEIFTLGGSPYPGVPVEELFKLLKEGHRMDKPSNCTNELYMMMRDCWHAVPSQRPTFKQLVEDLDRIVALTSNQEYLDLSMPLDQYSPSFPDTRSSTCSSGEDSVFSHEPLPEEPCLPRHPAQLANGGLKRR
IC50 (FGFR1; [1]),IC50 (FGFR3; [2]),Selectivity (X) FGFR1/FGFR3 (FGFR3),"Selectivity (X) FGFR4/FGFR3 (FGFR3; ratio of IC50 FGFR4/FGFR3, selectivity towards FGFR3)",Compound,IC50 (FGFR1),IC50 (FGFR3)
1 to 10 nM,< 1 nM,A (A represents 1 ≤ multiple X<20),,"CC(Oc1ccc2[nH]nc(-c3cnn(C4CC(S(C)(=N)=O)C4)c3)c2c1)c1cccc2nccnc12 (stereo not shown) [Example 202, imino(methyl)(3-(4-(5-(1-(quinoxalin-5-yl)ethoxy)-1H-indazol-3-yl)-1H-pyrazol-1-yl)cyclobutyl)-sulfanone]",,
10 to 100 nM,1 to 10 nM,A (A represents 1 ≤ multiple X<20),,"C[C@@H](Oc1ccc2[nH]nc(-c3cnn(CC(=O)N4CCOCC4)c3)c2n1)c1c(Cl)cncc1Cl [Example 63, (R)-2-(4-(5-(1-(3,5-dichloropyridin-4-yl)ethoxy)-1H-pyrazolo[4,3-b]pyridin-3-yl)-1H-pyrazol-1-yl)-1-morpholinoethan-1-one]",,
10 to 100 nM,< 1 nM,B (B represents 20 ≤ multiple X<50),,"CC(Oc1ccc2[nH]nc(-c3cnn(C4CC(N(C)C(=O)C(C)(C)N)C4)c3)c2c1)c1cccc2nccnc12 (stereo not shown) [Example 196, 2-amino-N,2-dimethyl-N-(3-(4-(5-(1-(quinoxalin-5-yl)ethoxy)-1H-indazol-3-yl)-1H-pyrazol-1-yl)cyclobutyl)propanamide]",,
1 to 10 nM,< 1 nM,A (A represents 1 ≤ multiple X<20),,"CC(Oc1ccc2[nH]nc(-c3cnn(C4CN(C(=O)NC5CC5)C4)c3)c2c1)c1cccc2nccnc12 (stereo not shown) [Example 201, N-cyclopropyl-3-(4-(5-(1-(quinoxalin-5-yl)ethoxy)-1H-indazol-3-yl)-1H-pyrazol-1-yl)azetidine-1-carboxamide]",,
10 to 100 nM,1 to 10 nM,B (B represents 20 ≤ multiple X<50),,"C[C@@H](Oc1ccc2[nH]nc(-c3cnn(CCS(C)(=O)=O)c3)c2n1)c1c(Cl)cncc1Cl [Example 42, (R)-5-(1-(3,5-dichloropyridin-4-yl)ethoxy)-3-(1-(2-(methylsulfonyl)ethyl)-1H-pyrazol-4-yl)-1H-pyrazolo[4,3-b]pyridine]",,
10 to 100 nM,1 to 10 nM,A (A represents 1 ≤ multiple X<20),,"C[C@@H](Oc1cc(F)c2[nH]nc(-c3cnn(CC(N)=O)c3)c2c1)c1c(Cl)cncc1Cl [Example 16, (R)-2-(4-(5-(1-(3,5-dichloropyridin-4-yl)ethoxy)-7-fluoro-1H-indazol-3-yl)-1H-pyrazol-1-yl)acetamide]",,
10 to 100 nM,< 1 nM,B (B represents 20 ≤ multiple X<50),,"CC(Oc1ccc2[nH]nc(-c3cnn(C4CN(C(=O)C5CC5)C4)c3)c2c1)c1cc(Cl)cc2nccnc12 (stereo not shown) [Example 238, (3-(4-(5-(1-(7-chloroquinoxalin-5-yl)ethoxy)-1H-indazol-3-yl)-1H-pyrazol-1-yl)azetidin-1-yl)(cyclopropyl) methanone]",,
10 to 100 nM,1 to 10 nM,A (A represents 1 ≤ multiple X<20),,"Cc1ccc2nnccc2c1C(C)Oc1ccc2[nH]nc(-c3cnn(C)c3)c2c1 (stereo not shown) [Example 168, 6-methyl-5-(1-((3-(1-methyl-1H-pyrazol-4-yl)-1H-indazol-5-yl)oxy)ethyl)cinnoline]",,
10 to 100 nM,1 to 10 nM,A (A represents 1 ≤ multiple X<20),,"CC(Oc1ccc2[nH]nc(-c3cnn(C4CN(C(N)=O)C4)c3)c2c1)c1cc(Cl)cc2nccnc12 (stereo not shown) [Example 169, 3-(4-(5-(1-(7-chloroquinoxalin-5-yl)ethoxy)-1H-indazol-3-yl)-1H-pyrazol-1-yl)aze tidine-1-carboxamide]",,
10 to 100 nM,1 to 10 nM,B (B represents 20 ≤ multiple X<50),,"C[C@@H](Oc1ccc2[nH]nc(-c3cnn(CC4CC4)c3)c2n1)c1c(Cl)cncc1Cl [Example 49, (R)-3-(1-(cyclopropylmethy 1)-1H-pyrazol-4-yl)-5-(1-(3,5-dichloropyridin-4-yl)ethoxy)-1H-pyrazolo[4,3-b]pyridine]",,
10 to 100 nM,< 1 nM,B (B represents 20 ≤ multiple X<50),,"CC(Oc1ccc2[nH]nc(-c3cnn(C4CN(C(=O)C(C)(C)O)C4)c3)c2c1)c1cc(Cl)cc2nccnc12 (stereo not shown) [Example 209, 1-(3-(4-(5-(1-(7-chloroquinoxalin-5-yl)ethoxy)-1H-indazol-3-yl)-1H-pyrazol-1-yl)azetidin-1-yl)-2-hydroxy-2-methylpropan-1-one]",,
1 to 10 nM,< 1 nM,A (A represents 1 ≤ multiple X<20),,"CC(Oc1ccc2[nH]nc(-c3cnn(C)c3)c2c1)c1nc(C2CC2)cc2nccnc12 (stereo not shown) [Example 230, 7-cyclopropyl-5-(1-((3-(1-methyl-1H-pyrazol-4-yl)-1H-indazol-5-yl)oxy)ethyl)pyri dino[3,4-b]pyrazine]",,
10 to 100 nM,10 to 100 nM,A (A represents 1 ≤ multiple X<20),,"C[C@@H](Oc1cc(F)c2[nH]nc(-c3cnn(CC(=O)N4CCOCC4)c3)c2c1)c1c(Cl)cncc1Cl [Example 19, (R)-2-(4-(5-(1-(3,5-dichloropyridin-4-yl)ethoxy)-7-fluoro-1H-indazol-3-yl)-1H-pyrazol-1-yl)-1-morpholinoetha n-1-one]",,
10 to 100 nM,< 1 nM,B (B represents 20 ≤ multiple X<50),,"CC(Oc1ccc2[nH]nc(-c3cnn(C4CN(CC(N)=O)C4)c3)c2c1)c1cccc2nccnc12 (stereo not shown) [Example 214, 2-(3-(4-(5-(1-(quinoxalin-5-yl)ethoxy)-1H-indazol-3-yl)-1H-pyrazol-1-yl)azetidin-1-yl)acetamide]",,
1 to 10 nM,< 1 nM,A (A represents 1 ≤ multiple X<20),A (A represents 1 ≤ multiple X<20),"CC(Oc1ccc2[nH]nc(-c3cnn(C)c3)c2c1)c1cccn2ncc(C#N)c12 (stereo not shown) [Example 186, 4-(1-((3-(1-methyl-1H-pyrazol-4-yl)-1H-indazol-5-yl)oxy)ethyl)py razolo[1,5-a]pyridine-3-carbonitrile]",,
1 to 10 nM,1 to 10 nM,A (A represents 1 ≤ multiple X<20),,"CC(Oc1ccc2[nH]nc(-c3cnn(C4CN(C(=O)CC#N)C4)c3)c2c1)c1cccc2nccnc12 (stereo not shown) [Example 180, 3-oxo-3-(3-(4-(5-(1-(quinoxalin-5-yl)ethoxy)-1H-indazol-3-yl)-1H-pyrazol-1-yl)azetidin-1-yl)propionitrile]",,
1 to 10 nM,1 to 10 nM,A (A represents 1 ≤ multiple X<20),,"CC(C)c1ccc2nccnc2c1C(C)Oc1ccc2[nH]nc(-c3cnn(C)c3)c2c1 (stereo not shown) [Example 129, 6-isopropyl-5-(1-((3-(1-methyl-1H-pyrazol-4-yl)-1H-indazol-5-yl)oxy)ethyl)quino xaline]",,
1 to 10 nM,< 1 nM,A (A represents 1 ≤ multiple X<20),,"C[C@@H](Oc1ccc2[nH]nc(-c3cnn(CCN4CCN(S(C)(=O)=O)CC4)c3)c2n1)c1c(Cl)cncc1Cl [Example 56, (R)-5-(1-(3,5-dichloropyridin-4-yl)ethoxy)-3-(1-(2-(4-(methylsulfonyl)piperazin-1-yl)ethyl)-1H-pyrazol-4-yl)-1H-pyrazolo[4,3-b]pyridine]",,
1 to 10 nM,< 1 nM,A (A represents 1 ≤ multiple X<20),,"CC(=O)N1CCN(CCn2cc(-c3n[nH]c4ccc(O[C@H](C)c5c(Cl)cncc5Cl)nc34)cn2)CC1 [Example 57, (R)-1-(4-(2-(4-(5-(1-(3,5-dichloropyridin-4-yl)ethoxy)-1H-pyrazolo[4,3-b]pyridin-3-yl)-1H-pyrazol-1-yl)ethyl)piperazin-1-yl)ethan-1-one]",,

Compound,IC50 (FGFR1; [1]),IC50 (FGFR3; [2]),Selectivity (X) FGFR1/FGFR3 (FGFR3),"Selectivity (X) FGFR4/FGFR3 (FGFR3; ratio of IC50 FGFR4/FGFR3, selectivity towards FGFR3)",IC50 (FGFR1),IC50 (FGFR3)
COCCOCCn1cc(-c2n[nH]c3c(F)cc(O[C@H](C)c4c(Cl)cncc4Cl)cc23)cn1 [Example 21],,,A (A represents 1 ≤ multiple X<20),,> 100 nM,10 to 100 nM
"COc1cc(O[C@H](C)c2c(Cl)cncc2Cl)cc2c(-c3cnn(CCN4CCOCC4)c3)n[nH]c12 [Example 25, (R)-4-(2-(4-(5-(1-(3,5-dichloropyridin-4-yl)ethoxy)-7-methoxy-1H-indazol-3-yl)-1H-pyrazol-1-yl)ethyl)morpholine]",,,B (B represents 20 ≤ multiple X<50),,> 100 nM,> 100 nM
CC(Oc1ccc2[nH]nc(-c3cnn(C4COC4)c3)c2c1)c1cc(Cl)cc2nccnc12 (stereo not shown) [Example 239],10 to 100 nM,1 to 10 nM,C (C represents 50 ≤ multiple X<100),,,
